From patent publication US12139508B2, “Steroid derivative regulators, method for preparing the same, and uses thereof” (JIANGSU HANSOH PHARMACEUTICAL GROUP CO., LTD., priority 2018, dated 2024)
Read-outs that look alike come from different tables or passages of the source.

Assays:
GABA-A receptor = assay: 35S-TBPS binding assay (GABAA receptor binding ability test); parameters: species or system Sprague-Dawley rat; details: rat cerebral cortex cell membrane, 5 μM GABA, 2 nM 35S-TBPS; read-out: 35S-TBPS bindng test: IC50 on inhibiting the TBPS binding activity
Outline: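 Rat (male Sprague-Dawley) cortical membranes in PBS were preincubated 5 min at 25° C with compound (from 1 μM, 3-fold, 8 points, 1% DMSO), then 5 μM GABA 5 min, then 2 nM ^35S-TBPS for 20 h at 4° C. Filter-bound counts gave % inhibition against DMSO and 10 μM P026-2 controls; IC50 by 4-parameter fit.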

[1] = Pharmacokinetic assay in Balb/c mice (plasma and brain tissue); type: in vivo; details: mouse, po, 5 mg/kg p.o., male Balb/c mice; for AUC(0-t): read-out: Area under curve AUC0-t; for AUC(0-inf): read-out: Area under curve AUC0-∞; for half-life: read-out: Half-life t1/2 (converted); for MRT: read-out: Mean residence time MRT; for Tmax: read-out: Peak time tmax; for Cmax: read-out: Plasma concentration Cmax
Method: Balb/c mice were used as test animals. The pharmacokinetic behavior in mice (plasma and brain tissue) of the compounds of Examples 2, 3, 5, 6, 9, 13, 59, 60, 61, 63, 71-74, 81, 103, 130, 134, 135, 137, 138, 140, 141, 143, 145 and 146 orally administered at a dose of 5 mg/kg was studied.
Each group had 24 male Balb/c mice. After an overnight fast, Balb/c mice were administered p.o. with the test compound at an administration dose of 5 mg/kg and an administration volume of 10 mL/kg.
0.2 ml of blood was taken from the heart before administration and at 0, 0.5, 1, 2, 4, 6, 8 and 24 hours after administration. The samples were stored in EDTA-K2 tubes, and centrifuged for 6 minutes at 4° C., 6000 rpm to separate the plasma. The plasma samples were stored at −80° C. The mice were sacrificed with CO2, and the whole brain tissue was taken out, weighed, placed in a 2 mL centrifuge tube and stored at −80° C.
1) 160 μL of acetonitrile was added to 40 μL of the plasma sample for precipitation, and then the mixture was centrifuged for 5-20 minutes at 3500×g.
2) 90 μL of acetonitrile containing the internal standard (100 ng/mL) was added to 30 μL of the plasma and brain homogenate samples for precipitation, and then the mixture was centrifuged for 8 minutes at 13000 rpm.
3) 70 μL of the treated supernatant was taken and added to 70 μL of water, and mixed by vortex for 10 minutes. 20 μL of the mixture was taken to analyze the concentration of the test compound by LC/MS/MS. LC/MS/MS analysis instrument: AB Sciex API 4000 Qtrap.
• Liquid chromatography condition: Shimadzu LC-20AD pump. • Chromatographic column: Agilent ZORBAX™ XDB-C18 (50×2.1 mm, 3.5 μm) (note: Aglient ZORBAX™ is a kind of column used in the reverse HPLC); • Mobile phase: Eluent A was 0.10% formic acid in water, and Eluent B was acetonitrile. • Flow rate: 0.4 mL/min • Elution time: 0-4.0 minutes, the eluent is as follows:
The main parameters of pharmacokinetics were calculated by WinNonlin 6.1.

For `C[C@@H]1C[C@H](C(=O)Cn2ncnn2)[C@@]2(C)CC[C@H]3[C@@H](CC[C@@H]4C[C@](C)(O)CC[C@@H]43)[C@H]12` [Example 63, 1-((3R,5R,8R,9R,10S,13S,14S,15R,17S)-3-Hydroxy-3,13,15-trimethylhexadecahydro-1H-cyclopenta[a]phenanthren-17-yl)-2-(2H-tetrazol-2-yl)ethan-1-one], the IC50 (GABA-A receptor) was 6.1 nM, the AUC(0-t) ([1]; brain tissue) was 603 ng·h/mL and the AUC(0-inf) ([1]; brain tissue) was 618 ng·h/mL. It also gave a half-life ([1]; brain tissue) of 0.72 h, an MRT ([1]; brain tissue) of 1.21 h and a Tmax ([1]; brain tissue) of 0.5 h. The Cmax ([1]; brain tissue) was 486 ng/mL, the AUC(0-t) ([1]; plasma) was 599 ng·h/mL and the AUC(0-inf) ([1]; plasma) was 604 ng·h/mL. The half-life ([1]; plasma) was 2.58 h, the MRT ([1]; plasma) was 2.42 h and the Tmax ([1]; plasma) was 0.5 h. It also gave a Cmax ([1]; plasma) of 335 ng/mL.

In the case of `C[C@@]1(O)CC[C@H]2[C@H](CC[C@@H]3[C@@H]2CC[C@@]2(C)[C@H]3[C@@H]3C[C@@H]3[C@@H]2C(=O)Cn2ccc(C(F)(F)F)n2)C1` [Example 6, 1-((2R,4aS,4bR,6aS,7S,7aS,8aR,8bR,8cR,10aR)-2-Hydroxy-2,6a-dimethyloctadecahydrocyclopropa[4,5]cyclopenta[1,2-a]phenanthren-7-yl)-2-(3-(trifluoromethyl)-1H-pyrazol-1-yl)ethan-1-one], the IC50 (GABA-A receptor) is reported as 3.1 nM, the AUC(0-t) ([1]; brain tissue) is reported as 917 ng·h/mL and the AUC(0-inf) ([1]; brain tissue) is reported as 964 ng·h/mL. It also gave a half-life ([1]; brain tissue) of 1.9 h, an MRT ([1]; brain tissue) of 2.4 h and a Tmax ([1]; brain tissue) of 0.5 h. It also gave a Cmax ([1]; brain tissue) of 464 ng/mL, an AUC(0-t) ([1]; plasma) of 409 ng·h/mL and an AUC(0-inf) ([1]; plasma) of 484 ng·h/mL. It also gave a half-life ([1]; plasma) of 3.19 h, an MRT ([1]; plasma) of 4.03 h and a Tmax ([1]; plasma) of 0.5 h. For the same molecule, the Cmax ([1]; plasma) was 219 ng/mL.

Work on `C[C@@H]1C[C@H](C(=O)Cn2nc(C#N)cc2C#N)[C@@]2(C)CC[C@H]3[C@@H](CC[C@@H]4C[C@](C)(O)CC[C@@H]43)[C@H]12` [Example 135, 1-(2-((3R,5R,8R,9R,10S,13S,14S,15R,17S)-3-Hydroxy-3,13,15-trimethylhexadecahydro-1H-cyclopenta[a]phenanthren-17-yl)-2-oxoethyl)-1H-pyrazole-3,5-dicarbonitrile] yielded an IC50 (GABA-A receptor) of 4.3 nM, an AUC(0-t) ([1]; brain tissue) of 3740 ng·h/mL and an AUC(0-inf) ([1]; brain tissue) of 4450 ng·h/mL. The half-life ([1]; brain tissue) was 2.82 h, the MRT ([1]; brain tissue) was 4.71 h and the Tmax ([1]; brain tissue) was 2 h. It also gave a Cmax ([1]; brain tissue) of 724 ng/mL, an AUC(0-t) ([1]; plasma) of 4100 ng·h/mL and an AUC(0-inf) ([1]; plasma) of 4110 ng·h/mL. For the same molecule, the half-life ([1]; plasma) was 2.06 h, the MRT ([1]; plasma) was 4.38 h and the Tmax ([1]; plasma) was 2 h. The Cmax ([1]; plasma) was 640 ng/mL.

Work on `C[C@@]1(O)CC[C@H]2[C@H](CC[C@@H]3[C@@H]2CC[C@@]2(C)[C@H]3[C@@H]3C[C@@H]3[C@@H]2C(=O)COc2cnc(C(F)(F)F)nc2)C1` [Example 130, 1-((2R,4aS,4bR,6aS,7S,7aS,8aR,8bR,8cR,10aR)-2-Hydroxy-2,6a-dimethyloctadecahydrocyclopropa[4,5]cyclopenta[1,2-a]phenanthren-7-yl)-2-((2-(trifluoromethyl)pyrimidin-5-yl)oxy)ethan-1-one] yielded an IC50 (GABA-A receptor) of 4.2 nM, an AUC(0-t) ([1]; brain tissue) of 2310 ng·h/mL and an AUC(0-inf) ([1]; brain tissue) of 2630 ng·h/mL. The half-life ([1]; brain tissue) was 2.49 h, the MRT ([1]; brain tissue) was 3.88 h and the Tmax ([1]; brain tissue) was 0.5 h. For the same molecule, the Cmax ([1]; brain tissue) was 563 ng/mL, the AUC(0-t) ([1]; plasma) was 1390 ng·h/mL and the AUC(0-inf) ([1]; plasma) was 1560 ng·h/mL. The half-life ([1]; plasma) was 2.21 h, the MRT ([1]; plasma) was 3.83 h and the Tmax ([1]; plasma) was 0.5 h. For the same molecule, the Cmax ([1]; plasma) was 307 ng/mL.

`CC[C@@H]1C[C@H](C(=O)Cn2ccc(C(F)(F)F)n2)[C@@]2(C)CC[C@H]3[C@@H](CC[C@@H]4C[C@](C)(O)CC[C@@H]43)[C@H]12` [Example 138, 1-((3R,5R,8R,9R,10S,13S,14S,15R,17S)-15-Ethyl-3-hydroxy-3,13-dimethylhexadecahydro-1H-cyclopenta[a]phenanthren-17-yl)-2-(3-(trifluoromethyl)-1H-pyrazol-1-yl)ethan-1-one] showed an IC50 (GABA-A receptor) of 25.2 nM, an AUC(0-t) ([1]; brain tissue) of 773 ng·h/mL and an AUC(0-inf) ([1]; brain tissue) of 935 ng·h/mL. The half-life ([1]; brain tissue) was 1.47 h, the MRT ([1]; brain tissue) was 2.38 h and the Tmax ([1]; brain tissue) was 0.5 h. It also gave a Cmax ([1]; brain tissue) of 314 ng/mL, an AUC(0-t) ([1]; plasma) of 662 ng·h/mL and an AUC(0-inf) ([1]; plasma) of 730 ng·h/mL. The half-life ([1]; plasma) was 1.66 h, the MRT ([1]; plasma) was 2.83 h and the Tmax ([1]; plasma) was 0.5 h. For the same molecule, the Cmax ([1]; plasma) was 432 ng/mL.

`C[C@@H]1C[C@H](C(=O)Cn2cc(C(F)(F)F)cn2)[C@@]2(C)CC[C@H]3[C@@H](CC[C@@H]4C[C@](C)(O)CC[C@@H]43)[C@H]12` [Example 59, 1-((3R,5R,8R,9R,10S,13S,14S,15R,17S)-3-Hydroxy-3,13,15-trimethylhexadecahydro-1H-cyclopenta[a]phenanthren-17-yl)-2-(4-(trifluoromethyl)-1H-pyrazol-1-yl)ethan-1-one] showed an IC50 (GABA-A receptor) of 6.2 nM, an AUC(0-t) ([1]; brain tissue) of 2640 ng·h/mL and an AUC(0-inf) ([1]; brain tissue) of 2680 ng·h/mL. For the same molecule, the half-life ([1]; brain tissue) was 3.18 h, the MRT ([1]; brain tissue) was 4.81 h and the Tmax ([1]; brain tissue) was 1 h. It also gave a Cmax ([1]; brain tissue) of 678 ng/mL, an AUC(0-t) ([1]; plasma) of 1300 ng·h/mL and an AUC(0-inf) ([1]; plasma) of 1320 ng·h/mL. For the same molecule, the half-life ([1]; plasma) was 2.99 h, the MRT ([1]; plasma) was 4.15 h and the Tmax ([1]; plasma) was 0.5 h. For the same molecule, the Cmax ([1]; plasma) was 554 ng/mL.

Work on `CC[C@@H]1C[C@H](C(=O)Cn2ccnn2)[C@@]2(C)CC[C@H]3[C@@H](CC[C@@H]4C[C@](C)(O)CC[C@@H]43)[C@H]12` [Example 140, 1-((3R,5R,8R,9R,10S,13S,14S,15R,17S)-15-Ethyl-3-hydroxy-3,13-dimethylhexadecahydro-1H-cyclopenta[a]phenanthren-17-yl)-2-(1H-1,2,3-triazol-1-yl)ethan-1-one] yielded an IC50 (GABA-A receptor) of 33.1 nM, an AUC(0-t) ([1]; brain tissue) of 4330 ng·h/mL and an AUC(0-inf) ([1]; brain tissue) of 4540 ng·h/mL. It also gave a half-life ([1]; brain tissue) of 1.21 h, an MRT ([1]; brain tissue) of 2.1 h and a Tmax ([1]; brain tissue) of 0.5 h. For the same molecule, the Cmax ([1]; brain tissue) was 1740 ng/mL, the AUC(0-t) ([1]; plasma) was 5980 ng·h/mL and the AUC(0-inf) ([1]; plasma) was 6110 ng·h/mL. For the same molecule, the half-life ([1]; plasma) was 1.19 h, the MRT ([1]; plasma) was 2.22 h and the Tmax ([1]; plasma) was 0.5 h. The Cmax ([1]; plasma) was 2480 ng/mL.

Molecule `C[C@@H]1C[C@H](C(=O)Cn2cc(C#N)c(Cl)n2)[C@@]2(C)CC[C@H]3[C@@H](CC[C@@H]4C[C@](C)(O)CC[C@@H]43)[C@H]12` [Example 134, 3-Chloro-1-(2-((3R,5R,8R,9R,10S,13S,14S,15R,17S)-3-hydroxy-3,13,15-trimethylhexadecahydro-1H-cyclopenta[a]phenanthren-17-yl)-2-oxoethyl)-1H-pyrazole-4-carbonitrile] has an IC50 (GABA-A receptor) of 6.7 nM, an AUC(0-t) ([1]; brain tissue) of 3210 ng·h/mL and an AUC(0-inf) ([1]; brain tissue) of 3500 ng·h/mL. For the same molecule, the half-life ([1]; brain tissue) was 1.59 h, the MRT ([1]; brain tissue) was 3.22 h and the Tmax ([1]; brain tissue) was 1 h. It also gave a Cmax ([1]; brain tissue) of 892 ng/mL, an AUC(0-t) ([1]; plasma) of 4630 ng·h/mL and an AUC(0-inf) ([1]; plasma) of 5130 ng·h/mL. The half-life ([1]; plasma) was 1.78 h, the MRT ([1]; plasma) was 3.31 h and the Tmax ([1]; plasma) was 0.5 h. It also gave a Cmax ([1]; plasma) of 1750 ng/mL.

Work on `C[C@@]1(O)CC[C@H]2[C@H](CC[C@@H]3[C@@H]2CC[C@@]2(C)[C@H]3[C@@H]3C[C@@H]3[C@@H]2C(=O)Cn2ncnn2)C1` [Example 9, 1-((2R,4aS,4bR,6aS,7S,7aS,8aR,8bR,8cR,10aR)-2-Hydroxy-2,6a-dimethyloctadecahydrocyclopropa[4,5]cyclopenta[1,2-a]phenanthren-7-yl)-2-(2H-tetrazol-2-yl)ethan-1-one] yielded an IC50 (GABA-A receptor) of 21.3 nM, an AUC(0-t) ([1]; brain tissue) of 677 ng·h/mL and an AUC(0-inf) ([1]; brain tissue) of 680 ng·h/mL. It also gave a half-life ([1]; brain tissue) of 0.5 h, an MRT ([1]; brain tissue) of 0.9 h and a Tmax ([1]; brain tissue) of 0.5 h. It also gave a Cmax ([1]; brain tissue) of 605 ng/mL, an AUC(0-t) ([1]; plasma) of 775 ng·h/mL and an AUC(0-inf) ([1]; plasma) of 778 ng·h/mL. The half-life ([1]; plasma) was 0.9 h, the MRT ([1]; plasma) was 1.1 h and the Tmax ([1]; plasma) was 0.5 h. The Cmax ([1]; plasma) was 664 ng/mL.
